The record followed here is patent US10604514B2, “6-(5-membered heteroaryl)isoquinolin-3-yl carboxamides and preparation and use thereof” (Samumed, LLC, priority 2017, dated 2020).

In test [1] the test system is LL29 cells (primary human fibroblasts derived from IPF patients), α-smooth muscle actin. Description: Inhibition of fibrotic process: αSMA in TGF-β1-treated primary human fibroblasts from IPF patients (LL29 cells). It is filed as cell-based. The note with it: Homo sapiens, Fibroblast; for pEC50: 96 h, % αSMA-positive LL29 cells, TGF-β1 20 ng/mL, 4 days. From the text: Representative compounds were screened using primary human fibroblasts (derived from IPF patients) treated with TGF-β1 to determine their ability to inhibit the fibrotic process.
Primary human fibroblasts derived from IPF patients (LL29 cells) [^1Xiaoqiu Liu, et. al., “Fibrotic Lung Fibroblasts Show Blunted Inhibition by cAMP Due to Deficient cAMP Response Element-Binding Protein Phosphorylation”, Journal of Pharmacology and Experimental Therapeutics (2005), 315(2), 678-687; ^2Watts, K. L., et. al., “RhoA signaling modulates cyclin D1 expression in human lung fibroblasts; implications for idiopathic pulmonary fibrosis”, Respiratory Research (2006), 7(1), 88] were obtained from American Type Culture Collection (ATCC) and expanded in F12 medium supplemented with 15% Fetal Bovine Serum and 1% Penicillin/Streptomycin.
Each compound was dissolved in DMSO as a 10 mM stock and used to prepare compound source plates. Serial dilution (1:2, 11-point dose-response curves from […] to 0.94 nM) and compound transfer was performed using the ECHO 550 (Labcyte, Sunnyvale, Calif.) into 384-well clear bottom assay plates (Greiner Bio-One) with appropriate DMSO backfill for a final DMSO concentration of 0.1%. LL29 cells were plated at 1,500 cells/well in 70 μL/well F12 medium supplemented with 1% Fetal Bovine Serum. TGF-β1 (Peprotech; 20 ng/mL) was added to the plates to induce fibrosis (ref. 1 and 2 above). Wells treated with TGF-31 and containing DMSO were used as positive control, and cells with only DMSO were negative control. Cells were incubated at 37° C. and 5% CO2 for 4 days. Following incubation for 4 days, SYTOX green nucleic acid stain (Life Technologies [Thermo Fisher Scientific]) was added to the wells at a final concentration of 1 μM and incubated at room temperature for 30 min. Cells were then fixed using 4% formaldehyde (Electron Microscopy Sciences), washed 3 times with PBS followed by blocking and permeabilization using 3% Bovine Serum Albumin (BSA; Sigma) and 0.3% Triton X-100 (Sigma) in PBS. Cells were then stained with antibody specific to α-smooth muscle actin (αSMA; Abcam) (ref. 1 and 2 above) in 3% Bovine Serum Albumin (BSA; Sigma) and 0.3% Triton X-100 (Sigma) in PBS, and incubated overnight at 4° C. Cells were then washed 3 times with PBS, followed by incubation with Alexa Flor-647 conjugated secondary antibody (Life Technologies [Thermo Fisher Scientific]) and DAPI in 3% Bovine Serum Albumin (BSA; Sigma) and 0.3% Triton X-100 (Sigma) in PBS at room temperature for 1 hour. Cells were then washed 3 times with PBS and plates were sealed for imaging. αSMA staining was imaged by excitation at 630 nm and emission at 665 nm and quantified using the Compartmental Analysis program on the CellInsight CX5 (Thermo Scientific). Dead or apoptotic cells were excluded from analysis based on positive SYTOX green staining. % of total cells positive for αSMA were counted in each well and normalized to the average of 11 wells treated with TGF-β1 on the same plate using Dotmatics' Studies Software.

For a further test, the target named is DYRK1A kinase (Homo sapiens (Human), UniProt Q13627). The test can be described thus: DYRK1A kinase assay (Ser/Thr 18 peptide Z-lyte, FRET). The note with it: DYRK1A kinase; method text calls the value IC50.
Test [2] concerns Wnt activity (Sp5-Luc reporter in SW480 colon carcinoma cells). The test can be described thus: Wnt activity screening assay (Sp5-Luc reporter gene assay). It is filed as cell-based, human. The following applies: Homo sapiens; for pEC50: Sp5-Luc reporter, SW480 cells, 36 to 48 hours. From the text: The screening assay for Wnt activity is described as follows. Reporter cell lines can be generated by stably transducing cancer cell lines (e.g., colon cancer) or primary cells (e.g., IEC-6 intestinal cells) with a lentiviral construct that includes a Wnt-responsive promoter driving expression of the firefly luciferase gene.
SW480 colon carcinoma cells were transduced with a lentiviral vector expressing luciferase with a human Sp5 promoter consisting of a sequence of eight TCF/LEF binding sites. SW480 cells stably expressing the Sp5-Luc reporter gene and a hygromycin resistance gene were selected by treatment with 150 μg/mL of hygromycin for 7 days. These stably transduced SW480 cells were expanded in cell culture and used for all further screening activities. Each compound was dissolved in DMSO as a 10 mM stock and used to prepare compound source plates. Serial dilution (1:3, 10-point dose-response curves starting from 10 μM) and compound transfer was performed using the ECHO 550 (Labcyte, Sunnyvale, Calif.) into 384-well white solid bottom assay plates (Greiner Bio-One) with appropriate DMSO backfill for a final DMSO concentration of 0.1%. For Sp5-Luc reporter gene assays, the cells were plated at 4,000 cells/well in 384-well plates with a DMEM medium containing 1% fetal bovine serum, and 1% Penicillin-Streptomycin and incubated for 36 to 48 hours at 37° C. and 5% CO2. Following incubation, 15 μl of BriteLite Plus luminescence reagent (Perkin Elmer) was added to each well of the 384-well assay plates. The plates were placed on an orbital shaker for 2 min and then luminescence was quantified using the Envision (Perkin Elmer) plate reader. Readings were normalized to DMSO only treated cells, and normalized activities were utilized for EC50 calculations using the dose-response log (inhibitor) vs. response -variable slope (four parameters) nonlinear regression feature available in GraphPad Prism 5.0 (or Dotmatics).

Another test relates to IL-6. Description: IL-6 inhibition in LPS-stimulated human peripheral blood mononuclear cells (HTRF). It is filed as cell-based. The note with it: Homo sapiens, PBMC; for pEC50: IL-6, LPS-stimulated huPBMCs, HTRF; for inhibition at 10 µM: read-out: percent value in parentheses below EC50 >10. Here is the method:
Fresh Normal PB MNC (Catalog # PB001, AllCells, Alameda, Calif.) were shipped overnight at 4° C. and resuspended in Roswell Park Memorial Institute (RPMI) 1640 Medium, with GlutaMAX Supplement (Catalog #61870127, ThermoFisher Scientific, Waltham, Mass.) supplemented with 1% Penicillin-Streptomycin (Catalog #151401633 ThermoFisher Scientific, Waltham, Mass.) and 1% fetal bovine serum (FBS) (Catalog #16140089, ThermoFisher Scientific, Waltham, Mass.) assay media.
Fresh normal human peripheral blood mononuclear cells (huPBMCs) were resuspended in 1% FBS-RPMI assay media with 1% Penicillin-Streptomycin 1% to a cell concentration of 1×10e6 cells/mL. Each compound was dissolved in DMSO (Catalog # D8418-100 ml, Sigma-Aldrich, St. Louis, Mo.) as a 10 mM stock and used to prepare compound source plates. Serial dilution (1:3, 10-point dose-response curves starting from 10 μM) and compound transfer was performed using the ECHO 550 (Labcyte, Sunnyvale, Calif.) into 384-well white Proxiplate-Plus assay plates (Catalog #6008289, PerkinElmer, Shelton, Conn.) with appropriate DMSO backfill for a final DMSO concentration of 0.25%. huPBMCs were plated at 5000 cells/well in the 384-well Proxiplate-Plus assay plates and incubated at 37° C.-5% CO2 for 2 hours. 50 ng/mL of Lipopolysaccharides from Escherichia coli 0111:B4 (Catalog # L5293-2 ML, Sigma-Aldrich, St. Louis, Mo.) was added after 2 hours and cells were incubated for another 22 hours at 37° C.-5% CO2. After 22 hour incubation, a mixture of anti-IL6 XL665 and anti-IL-6 Cryptate diluted in reconstitution buffer (Catalog #62IL6PEC, Cisbio Inc., Bedford, Mass.) was added to each well. Following incubation for 3 hours at room temperature, Homogeneous Time-Resolved Fluorescence (HTRF) was measured using the Envision (Perkin Elmer, Shelton, Conn.) at 665 nm and […]. The ratio of fluorescence at 665 nm to 620 nm was used as a readout for IL-6 quantification. All samples were processed in duplicate. Readings were normalized to DMSO treated cells and normalized activities were utilized for EC50 calculations. EC50 was determined using software generated by Dotmatics Limited (Windhill Bishops Stortford Herts, UK) using the Levenberg-Marquardt 4 parameter fitting procedure with finite different gradients.
(Time-resolved FRET reads energy transfer from a long-lived donor to a nearby acceptor.)

Test [3] deals with Tau phosphorylation at Ser396 (pSer396), SH-SY5Y cells. The test can be described thus: Tau phosphorylation at Ser396 (pSer396) in SH-SY5Y cells, ELISA/western blot.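 Further: cell lysates probed for reduced Tau pSer396 via ELISA (colorimetric) or western blot (chemiluminescence), both with one shared pSer396 antibody, EC50 for lowering phosphorylation.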 The following applies: Homo sapiens; SH-SY5Y cells, overnight (16-18 h); read-out: pSer396 Tau EC50. It is filed as cell-based, human. In general terms: In an ELISA, binding on a coated surface is turned into a signal by an enzyme label.

The test system of test [4] is SW480 colon carcinoma cells. Description: Cell viability assay (CellTiter-Glo) in SW480 cells.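 On all read-outs here: SW480 cells stably carrying an Sp5-luciferase TCF/LEF reporter, luminescent ATP signal as viability measure, DMSO-treated cells as control.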 It is filed as cell-based, human. The following applies: Homo sapiens; for pEC50: 96 h, cell viability, SW480 cells, four days, CellTiter-Glo; for inhibition at 10 µM: SW480, read-out: percent inhibition at 10 μM.
The next test addresses GSK3β kinase (Homo sapiens (Human), UniProt P49841). The test can be described thus: GSK3β kinase assay (Ser/Thr 09 peptide Z-lyte, FRET).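 Further: Coumarin/fluorescein emission ratio converted to percent phosphorylation against unphosphorylated (0%) and phosphorylated (100%) controls, 1 h compound incubation at room temperature, 11-point threefold dilutions from 10 µM, run in duplicate.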 It is filed as biochemical. The note with it: method text calls the value IC50.

pEC50: −log10 of the molar value.

Chain of GSK3β kinase (P49841 whole entry): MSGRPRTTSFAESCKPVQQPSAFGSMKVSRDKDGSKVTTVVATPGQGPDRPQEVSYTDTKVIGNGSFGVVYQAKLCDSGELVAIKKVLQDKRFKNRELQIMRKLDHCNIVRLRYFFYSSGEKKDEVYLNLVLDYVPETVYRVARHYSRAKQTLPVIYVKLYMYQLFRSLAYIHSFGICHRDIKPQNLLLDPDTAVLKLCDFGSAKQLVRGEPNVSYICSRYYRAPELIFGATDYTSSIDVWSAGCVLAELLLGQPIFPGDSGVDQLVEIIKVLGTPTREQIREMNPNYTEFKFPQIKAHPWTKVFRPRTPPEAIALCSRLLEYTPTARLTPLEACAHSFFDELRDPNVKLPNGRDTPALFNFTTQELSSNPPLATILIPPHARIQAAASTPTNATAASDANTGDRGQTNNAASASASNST

Consider `Cc1nnc(-c2ccc3cnc(NC(=O)C4CCNCC4)cc3c2)s1` [Compound 24, N-(6-(5-Methyl-1,3,4-thiadiazol-2-yl)isoquinolin-3-yl)piperidine-4-carboxamide], for which the pEC50 in test [1] is 6.24; at DYRK1A kinase, 8.15; in test [2], 5.93; in the test with IL-6 it was 5.06; in test [3] it was 6.90; in test [4], 5.44. For the same molecule, the pEC50 on GSK3β kinase was 7.52.

With `Cn1cc(-c2ccc3cnc(NC(=O)N4CCOCC4)cc3c2)nn1` [Compound 60, N-(6-(1-Methyl-1H-1,2,3-triazol-4-yl)isoquinolin-3-yl)morpholine-4-carboxamide], the pEC50 is 5.31 in test [1]; 8.15 at DYRK1A kinase; 6.17 in test [2]; below 5.00 in the test with IL-6; 5.96 in test [3]; 5.39 in test [4]. Moreover, the pEC50 on GSK3β kinase was 7.14. In the test with IL-6, the inhibition at 10 µM stood at 5.7%.

On to `Cc1nnc(-c2ccc3cnc(NC(=O)[C@H]4CC[C@H](N)CC4)cc3c2)s1` [Compound 21, trans-4-Amino-N-(6-(5-methyl-1,3,4-thiadiazol-2-yl)isoquinolin-3-yl) cyclohexane-1-carboxamide], for which the negative logarithm of the EC50 (pEC50) in test [1] is 6.47; on DYRK1A kinase it was 8.22; in test [2] it was 6.18; in the test with IL-6 it was 5.03; in test [3], 6.25; in test [4], 5.97. The pEC50 at GSK3β kinase is 7.46.

Consider `Cc1nnc(-c2ccc3cnc(NC(=O)N4CC[C@@H](N)[C@H](F)C4)cc3c2)s1` [Compound 131, (3R,4R)-4-Amino-3-fluoro-N-(6-(5-methyl-1,3,4-thiadiazol-2-yl)isoquinolin-3-yl)piperidine-1-carboxamide], for which the pEC50 is 5.71 in test [1]; 7.89 on DYRK1A kinase; 5.41 in test [2]; 5.71 in the test with IL-6; 6.47 in test [3]; below 5.00 in test [4]. In addition, at GSK3β kinase, the pEC50 was 8.22. In test [4], the inhibition at 10 µM was 35.9%.

On to `C[C@H]1CN(C)CCN1C(=O)Nc1cc2cc(-c3cnn(C)c3)ccc2cn1` [Compound 42, (S)-2,4-Dimethyl-N-(6-(1-methyl-1H-pyrazol-4-yl)isoquinolin-3-yl) piperazine-1-carboxamide], for which the pEC50 in test [1] was below 5.00; at DYRK1A kinase, 7.92; in test [2], below 5.00; with IL-6 it was below 5.00; in test [3], below 5.00; in test [4], below 5.00. The molecule further showed a pEC50 at GSK3β kinase of 5.33. For the same molecule, the inhibition at 10 µM was determined as 6.4% in test [1] (read-out: percent inhibition at 10 μM); 25.5% in test [2] (SW480, read-out: percent inhibition at 10 μM); 6.4% in the test with IL-6; 26.5% in test [4].

On to `Cn1cc(-c2cc(F)c3cnc(NC(=O)[C@H]4CC[C@H](N5CCOCC5)CC4)cc3c2)nn1` [Compound 56, trans-N-(8-Fluoro-6-(1-methyl-1H-1,2,3-triazol-4-yl)isoquinolin-3-yl)-4-morpholinocyclohexane-1-carboxamide], for which the pEC50 in test [1] is 6.55; on DYRK1A kinase it was 8.40; in test [2] it was 5.27; in the test on IL-6, 5.47; in test [3] it was 7.04; in test [4] it was 5.19. At GSK3β kinase, this molecule had a pEC50 of 8.05.

Regarding `Cn1cc(-c2cc3cc(NC(=O)[C@H]4CC[C@H](N(C)C)CC4)ncc3cc2F)cn1` [Compound 2, trans-4-(Dimethylamino)-N-(7-fluoro-6-(1-methyl-1H-pyrazol-4-yl)isoquinolin-3-yl)cyclohexane-1-carboxamide], the pEC50 in test [1] was 6.82; at DYRK1A kinase it was 8.40; in test [2], 6.10; in the test with IL-6 it was 5.89; in test [3] it was 6.25; in test [4], 5.35. At GSK3β kinase, this molecule had a pEC50 of 6.61.

As to `CN(C)C1CCN(C(=O)Nc2cc3cc(-c4cnn(C)c4)ccc3cn2)CC1` [Compound 63, 4-(Dimethylamino)-N-(6-(1-methyl-1H-pyrazol-4-yl)isoquinolin-3-yl) piperidine-1-carboxamide], the pEC50 is 5.89 in test [1]; 7.77 at DYRK1A kinase; 6.18 in test [2]; 5.32 in the test with IL-6; 5.51 in test [3]; 5.59 in test [4]. This molecule gave a pEC50 on GSK3β kinase of 6.33.

By pEC50 is commonly meant the EC50 on a negative log10 scale, so that one unit is a factor of ten.
